Laboratory results published in patent publication US9206246B2, “Heparin/heparan sulfate-dependent inhibitors of activated protein C and uses thereof in treating hemophilic disorders” (Academia Sinica, priority 2012, dated 2015).
Entries after “also recorded” stand apart in the source; their conditions may differ.

Key:
[1] = Heparin binding assay (HiTrap Heparin column, NaCl gradient); conditions: 0.0-1.0 M NaCl gradient, 20 mM Tris-HCl pH 8.0
Method: A: 70 μg of DrKIn-I in 0.1 ml equilibrating buffer (20 mM Tris-HCl, pH 8.0) was applied to a 5 ml HiTrap Heparin column and eluted with a 50 ml gradient from 0.0-1.0 M NaCl. The salt concentration corresponding to the elution peak was determined to be 0.95 M. B, Binding of DrKIn-I (0.78, 1.56, 2.34, 3.13, 4.68 and 6.25 nM) to immobilized APC was assessed in buffer containing 10 mM HEPES, 0.15 M NaCl, 3 mM EDTA and 0.05% P20 at a flow rate of 60 μl/min at 25° C. […] The thin lines represent the global fit to the response data. […] Results shown are means±SD of three experiments. Representative binding traces are shown.

plasmin [2] = molecular target: T1, plasmin (Homo sapiens, UniProt P00747); assay: Selectivity profile and Ki, amidolytic activity of plasmin; format: biochemical; conditions: for inhibition of plasmin: equimolar, plasmin 20 nM
T1 construct: thrombin, plasma kallikrein and plasmin were obtained; purchased Haematologic Technologies
Method: (§1) In each of these experiments, the molar ratio of protease active site to inhibitor was 1:1. The final concentrations of these proteases and their respective substrates were as follows: FXIIa (20 nM)/S-2302 (0.2 mM), FXIa (2.5 nM)/S-2366 (0.2 mM), FXa (10 nM)/S-2222 (1.3 mM), FIXa (200 nM)/Spectrozyme FIXa (1.3 mM), FVIIa (100 nM)/S-2288 (1.3 mM), thrombin (5 nM)/T-1637 (0.2 mM), kallikrein (5 nM)/S-2302 (0.2 mM), plasmin (20 nM)/S-2251 (0.2 mM), tPA (80 nM)/Spectrozyme tPA (0.2 mM), uPA (100 nM)/S-2288 (1.3 mM), APC (10 nM)/Spectrozyme PCa (0.2 mM) and trypsin (5 nM)/S-2222 (0.2 mM). Results shown are means±SD of at least three experiments.
(§2) DrKIn-I, with or without heparin, was screened for its inhibitory activity against trypsin and also against serine proteases in the coagulation cascade (FXIIa, FXIa, FXa, FIXa, FVIIa, thrombin and kallikrein) and in the fibrinolytic system (plasmin, tPA and uPA). The amidolytic activities of these proteases were determined in the presence or absence of equimolar concentrations of DrKIn-I using their respective chromogenic substrates.

thrombin = molecular target: T2, thrombin (Homo sapiens, UniProt P00734); assay: Selectivity profile, amidolytic activity of thrombin; format: biochemical
T2 construct: thrombin, plasma kallikrein and plasmin were obtained; purchased Haematologic Technologies
Method: as §1, §2

[3] = test system: protein C-deficient plasma; assay: Thrombin generation assay in protein C-deficient plasma; format: biochemical; conditions: TM-containing protein C-deficient plasma, heparan sulfate
Method: Thrombin generation in normal (A) and protein C-deficient (B) plasma. Experiments were performed in the presence of heparan sulfate (2 μg/ml). Solid lines represent thrombin generation in the presence of 100 nM thrombomodulin (TM) and varying concentrations of DrKIn-I (●, 0 nM; ▪, 40 nM; ▴, 80 nM; ◯, 200 nM). Dashed lines represent thrombin generation in the absence of TM and DrKIn-I.
(§3) Briefly, 80 μl of either normal plasma, protein C-deficient plasma, FVIII-deficient plasma or FIX deficient plasma containing 2 μM corn trypsin inhibitor, 2 μg/ml heparan sulfate (four disaccharide units long), 30 μM DOPC/DOPS/DOPE (60:20:20) and 100 nM recombinant TM was incubated with 20 μl of 500-fold diluted TF solution (Innovin; Dade Behring) in the absence or presence of the indicated concentrations of DrKIn-I. Following incubation for 3 minutes at 37° C., thrombin generation was initiated by the dispensation of 20 μl of 2.5 mM fluorogenic substrate (Z-Gly-Gly-Arg-AMC.HCl) dissolved in 0.15 M NaCl, 60 mg/ml BSA and 100 mM CaCl2. Measurements were taken at 1 minute intervals on a SpectraMax M2^e Microplate Reader using an excitation wavelength of 360 nm and an emission wavelength of 460 nm. In some assays, experiments were performed in the absence of thrombomodulin. Results were evaluated using the Technothrombin TGA software (Technoclone).

FVIII-deficient plasma = assay: Thrombin generation assay in FVIII-deficient plasma; format: biochemical; conditions: 100 nM TM, 2 μg/ml heparan sulfate
Method: (A) Representative thrombin generation curves in FVIII-deficient and FIX-deficient plasma performed in the presence of heparan sulfate (2 μg/ml), TM (100 nM) and varying concentrations of DrKIn-I (●, 0 nM; ▪, 20 nM; ▴, 40 nM; ▾, 80 nM; ◯, 200 nM). Dashed lines represent thrombin generation in the absence of TM and DrKIn-I. (B-C) Activity in FVIII-deficient (B) and FIX-deficient (C) plasma. Left panels show ETP; right panels, peak thrombin. For comparison, dashed lines represent the activity of normal plasma containing TM and heparan sulfate in the absence of the inhibitor. Results are represented as means±SEM of at least three independent experiments.
as §3, with “Measurements were taken at 1 minute intervals on a SpectraMax M2^e Microplate Reader using an excitation wavelength of 360 nm and an emission wavelength of 460 nm. In some assays, experiments were performed in the absence of thrombomodulin.” left out

APC in normal plasma = assay: APTT-based APC resistance assay in normal plasma; format: biochemical; conditions: 200 nM DrKIn-I, 40 nM APC, 2 μg/ml heparan sulfate
Method: (§4) APTT-based clotting times were measured in normal, FVIII-deficient and FIX-deficient plasma containing 2 μg/ml heparan sulfate in the presence or absence of 40 nM APC and the indicated concentrations of DrKIn-I. Results shown are means±S.D. of at least three experiments.
(§5) 50 μl of normal plasma, FVIII-deficient plasma or FIX-deficient plasma supplemented with 2 μg/ml heparan sulfate (four disaccharide units long) was exposed to APC (40 nM) and varying concentrations of DrKIn-I (50-200 nM). 50 μl of activated partial thromboplastin (APTT) reagent (HYPHEN Biomed) was added and incubated for 1 minute at 37° C. Finally, clotting was initiated by adding 50 μl of 20 mM CaCl2. Coagulation times, which reflect the activities of APC, were recorded on a coagulometer (Hemostasis Analyzer KC-1; Sigma Diagnostics).

[4] = test system: APC in FIX-deficient plasma; assay: APTT-based APC resistance assay in FIX-deficient plasma; format: biochemical; conditions: 50-200 nM DrKIn-I, 40 nM APC, 2 μg/ml heparan sulfate
Method: as §4, §5

plasmin [5] = assay: Euglobulin clot lysis assay; format: biochemical

T1 sequence (P00747 581-810 limits assumed): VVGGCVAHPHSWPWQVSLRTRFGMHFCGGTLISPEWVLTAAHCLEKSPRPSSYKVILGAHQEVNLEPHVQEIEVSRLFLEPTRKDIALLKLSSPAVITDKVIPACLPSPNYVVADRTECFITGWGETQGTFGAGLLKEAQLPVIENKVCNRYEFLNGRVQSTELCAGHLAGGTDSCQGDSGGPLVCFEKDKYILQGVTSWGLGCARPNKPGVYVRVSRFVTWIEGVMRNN
T1 sequence (P00747 97-580 limits assumed): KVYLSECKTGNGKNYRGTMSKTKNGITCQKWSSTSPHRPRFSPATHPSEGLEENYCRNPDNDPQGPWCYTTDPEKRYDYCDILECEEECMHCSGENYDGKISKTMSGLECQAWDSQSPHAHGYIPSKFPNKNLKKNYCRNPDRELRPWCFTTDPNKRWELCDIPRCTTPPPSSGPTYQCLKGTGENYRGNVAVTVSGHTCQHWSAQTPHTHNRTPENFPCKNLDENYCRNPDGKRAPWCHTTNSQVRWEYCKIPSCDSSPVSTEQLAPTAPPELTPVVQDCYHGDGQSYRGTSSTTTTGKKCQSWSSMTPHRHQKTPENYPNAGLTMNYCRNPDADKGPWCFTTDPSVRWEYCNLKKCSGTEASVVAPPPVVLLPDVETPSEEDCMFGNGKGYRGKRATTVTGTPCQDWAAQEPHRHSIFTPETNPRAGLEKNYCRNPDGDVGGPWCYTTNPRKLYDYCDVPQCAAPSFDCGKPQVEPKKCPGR

In the case of DrKIn-I (CGGNDNNFETRKKCRQTCGAPRKGRPT), the “NaCl concentration at elution from heparin column” value [1] is reported as 0.95 M, the inhibition of plasmin (plasmin [2]; in the absence of heparin) is reported as roughly 20% and the inhibition of plasmin (plasmin [2]; in the presence of heparin (0.1 U/ml)) is reported as roughly 70%. For the same substance, the Ki (plasmin [2]; in the presence of heparin, read-out: Ki for plasmin inhibition) was 1.56 ± 0.09 nM, the “inhibitory activity against thrombin” value (thrombin) was “no inhibitory activities” and the “thrombin generation profile (APC-independent)” value [3] was “did not alter the thrombin generation profile; also recorded: negligible effects”. The “DrKIn-I concentration correcting ETP to normal levels” value (FVIII-deficient plasma) was 60 nM, the “DrKIn-I concentration correcting peak thrombin to normal levels” value (FVIII-deficient plasma) was 130 nM and the clotting time (APC in normal plasma) was “almost completely restored the clotting time to that observed in the absence of APC”. For the same substance, the clotting time [4] was “dose-dependently decreased the clotting time”, the “prolongation of euglobulin clot lysis time” value (plasmin [5]; 20 nM inhibitor) was “failed to prolong the clot lysis time” and the “prolongation of euglobulin clot lysis time” value (plasmin [5]; 100 nM inhibitor) was “approximately an hour”.
